From patent US20260191999A1, “COMPOUNDS AND THEIR USE” (KING'S COLLEGE LONDON, priority 2022, published 2026)

Key:
SKOV3-ip1 cells = assay: Cisplatin-induced growth inhibition, MTT assay, SKOV3-ip1; format: cell-based, human; details: MTT assay 72 h post treatment; second value of 'respectively' pair (SKOV3-ip1 as printed)
Description: FIG. 1a: Graph showing cisplatin-induced growth inhibition in SKOV3-ip1 cells (white circles) and SKOV3-TRip2 cells (filled squares) using an MTT assay 72 h post treatment (n=3-5).
The SKOV3-TRip2 cell line was generated through progressive exposure to paclitaxel (Duan et al., 1999) whereas the SKOV3-ip1 cell line remained untreated.

[1] = test system: SKOV3-TRip2 and SKOV3-ip1 subcutaneous tumours; assay: In vivo tumour model and PET imaging; parameters: species or system Balb/c nu/nu mice
Description: All animal experiments were performed in accordance with the United Kingdom Home Office Animal (scientific procedures) Act […]. […] SKOV3-ip1 and 4×10^6 and SKOV3-TRip2 cells were injected subcutaneously into female Balb/c nu/nu mice aged 6-9 weeks (Charles River Laboratories). Tumour dimensions were measured using an electronic calliper and the volume calculated using the following equation: volume=((π/6)×h×w×l), where h, w and l represent, height, width, and length, respectively. Imaging studies took place when tumour size reached approximately 150-250 mm^3. Mice were anaesthetized with isoflurane (2.5% in oxygen) and maintained at 37° C. using an air-heated scanning bed. A tail vein cannula was inserted and a 3.7 MBq bolus of PQM-H-001 was administered in approximately 100 μL of PBS. Immediately following injection, 120 min PET acquisition was performed on a Mediso nanoScan PET/CT system. […] Reconstructed images (Tera-Tomo 3D reconstruction algorithm; 4 iterations; 6 subsets; 400-600 keV; 0.4 mm voxel size) were analysed using VivoQuant software (v. 2.5, Invicro Ltd.). Regions of interest (ROIs) were drawn manually on the CT images and the radioactivity concentration in each ROI expressed as a percentage of the injected dose per mL of tissue volume (% ID/mL).

[2] = test system: SKOV3-TRip2 and SKOV3-ip1 cells; assay: Cell uptake of radiotracer, drug-resistant vs drug-sensitive SKOV3 cells; format: cell-based, human
Description: For cell uptake studies SKOV3-ip1 and SKOV3-TRip2, A549-WT, A549-KO-ALDH1A1, HEK293-WT and HEK293-ALDH1A1 cells were plated in 6 well plates 24 h prior to the studies, as described above (Western Blotting). One mL of fresh media containing 0.37 MBq of PQM-H-001 and 6 KBq PQM-H-002 was added to each well for the desired incubation time. At 40 min, plates were placed on ice, washed three times with ice-cold PBS to remove exogenous radioactivity and lysed in RIPA buffer ([…]; Fisher Scientific Ltd).
For all cell uptake and efflux study decay-corrected radioactivity in lysates was determined on a gamma counter ([…]; Wallac 1282 CompuGamma counter), with the remaining cell lysate centrifuged (21,000×g for 10 min at 4° C.) and the supernatant used to determine protein concentration following radioactive decay using a Pierce BCA assay. To quantify radiotracer uptake in cells, three standard solutions of the radioactivity-containing medium were counted on the gamma counter. Data were expressed as a percentage of total radioactivity administered to cells per mg of protein.
Next, the time-dependent uptake of the of the radiotracers PQM-H-001 ([^18F]PQM-H-001) and PQM-H-002 ([^125I]PQM-H-002) was profiled in drug-resistant SKOV3-Trip2 and drug-sensitive SKOV3-ip1 cell lines (Pereira, R., et al. 2019).

Ex vivo biodistribution = format: in vivo, BALB/c-nu/nu mice; details: 90 min post radiotracer injection
Description: PQM-H-001 distribution was further evaluated ex vivo 90 min post radiotracer injection. […] Ex-vivo distribution of PQM-H-001 was performed after PET imaging (section: In Vivo Tumour Model and PET Imaging) by sacrificing all mice at time point 120 min post injection. Blood, tumour, and major organs and tissues were collected, wet-weighed, and counted using an automated y-counter (Wallac 1282 CompuGamma g counter). The concentrations of radioactivity in blood, tumor, and organs and tissues were determined as percentage injected of total radioactivity per gram (% ID/g).

N.N.[Cl][Pt][Cl] [cisplatin]
EC50 (SKOV3-ip1 cells): 2600 nM

CS(=O)(=O)N1CCN(C(=O)c2cnc3ccc([18F])cc3c2-c2ccc(C3(C#N)CC3)cc2)CC1 [PQM-H-001, 1-(4-(6-(fluoro-^18F)-3-(4-(methylsulfonyl)piperazine-1-carbonyl)quinolin-4-yl)phenyl)cyclopropane-1-carbonitrile]
Retention in treatment resistant SKOV3-TRip2 tumours compared to SKOV3-ip1 tumours ([1]; PET, subcutaneous tumours, 3.7 MBq i.v. bolus): > 5 ×
identification of drug resistant tumours in vivo (in words) ([1]; PET/CT imaging): can non-invasively identify drug resistant tumours in vivo
Radiotracer retention, drug resistant versus drug-sensitive cells [2]: 9 times higher
radiotracer retention in drug-resistant vs drug-sensitive tumours (in words) (Ex vivo biodistribution): substantially increased in the drug-resistant tumours compared to drug-sensitive tumours
radiotracer retention in healthy tissues (in words) (Ex vivo biodistribution): Low radiotracer retention was observed in most healthy tissues, except the liver
route of excretion (in words) (Ex vivo biodistribution): excretion occurring via the urinary and hepatobiliary tract
